Measured values from publication PMC3961306, “Comparison of the Cancer Gene Targeting and Biochemical Selectivities of All Targeted Kinase Inhibitors Approved for Clinical Use” (PLoS ONE, 2014).
Like-named read-outs stand apart in the source and are kept apart here.

System: forty-four human cancer cell lines
Experiment: Cell proliferation assay (ATPlite, 72 hours) in the 44 cell line Oncolines panel
Format: cell-based
Settings: for IC50: Homo sapiens
[1] = 769-P, cell line 769-P, read-out: cell panel IC50, 769-P
[2] = 786-0, cell line 786-0, read-out: cell panel IC50, 786-0
[3] = A 172, read-out: cell panel IC50, A-172, cell line A-172
[4] = A204, cell line A-204, read-out: cell panel IC50, A-204
[5] = A498, read-out: cell panel IC50, A-498, cell line A-498
[6] = A549, read-out: cell panel IC50, A-549, cell line A-549
[7] = A-375, cell line A375, read-out: cell panel IC50, A375
[8] = A-427, read-out: cell panel IC50, A-427, cell line A-427
[9] = ACHN, cell line ACHN, read-out: cell panel IC50, ACHN
[10] = AN3-CA, cell line AN3 CA, read-out: cell panel IC50, AN3 CA
[11] = AU565, read-out: cell panel IC50, AU-565, cell line AU-565
[12] = BT-20, cell line BT-20, read-out: cell panel IC50, BT-20
[13] = BT-549, read-out: cell panel IC50, BT-549, cell line BT-549
[14] = BXPC-3, cell line BxPC-3, read-out: cell panel IC50, BxPC-3
[15] = C-33-A, cell line C-33 A, read-out: cell panel IC50, C-33 A
[16] = CAL-27, cell line CAL 27, read-out: cell panel IC50, CAL 27
[17] = CCRF-CEM, cell line CCRF-CEM, read-out: cell panel IC50, CCRF-CEM
[18] = DLD-1, cell line DLD-1, read-out: cell panel IC50, DLD-1
[19] = FaDu, cell line FaDu, read-out: cell panel IC50, FaDu
[20] = HCT-15, cell line HCT-15, read-out: cell panel IC50, HCT-15
[21] = HCT-116, read-out: cell panel IC50, HCT-116, cell line HCT-116
[22] = Hs-578T, cell line Hs 578T, read-out: cell panel IC50, Hs 578T
[23] = Jurkat E6.1, cell line Jurkat E6.1, read-out: cell panel IC50, Jurkat E6.1
[24] = K562, read-out: cell panel IC50, K-562, cell line K-562
[25] = LS174T, read-out: cell panel IC50, LS 174T, cell line LS 174T
[26] = LoVo, cell line LoVo, read-out: cell panel IC50, LoVo
[27] = MG-63, cell line MG-63, read-out: cell panel IC50, MG-63
[28] = MOLT-4, cell line MOLT-4, read-out: cell panel IC50, MOLT-4
[29] = MeWo, cell line MeWo, read-out: cell panel IC50, MeWo
[30] = NCI-H82, cell line NCI-H82, read-out: cell panel IC50, NCI-H82
[31] = NCI-H460, cell line NCI-H460, read-out: cell panel IC50, NCI-H460
[32] = OVCAR-3, cell line OVCAR-3, read-out: cell panel IC50, OVCAR-3
[33] = RPMI-7951, cell line RPMI-7951, read-out: cell panel IC50, RPMI-7951
[34] = SHP77, cell line SHP-77, read-out: cell panel IC50, SHP-77
[35] = SK-N-AS, cell line SK-N-AS, read-out: cell panel IC50, SK-N-AS
[36] = SW48, cell line SW48, read-out: cell panel IC50, SW48
[37] = SW480, cell line SW480, read-out: cell panel IC50, SW480
[38] = SW-620, cell line SW620, read-out: cell panel IC50, SW620
[39] = U2OS, cell line U-2 OS, read-out: cell panel IC50, U-2 OS
[40] = U-87 MG, 72 h, U-87 MG cell line, ATPlite, 72 hours, read-out: IC50 in cell proliferation assay (table S5 cellpanel data)
[41] = cell line J82, read-out: cell panel IC50, J82
[42] = cell line PA-1, read-out: cell panel IC50, PA-1
[43] = cell line SJCRH30, read-out: cell panel IC50, SJCRH30
[44] = cell line SR, read-out: cell panel IC50, SR

O=c1[nH]cc(F)c(=O)[nH]1 [5-fluorouracil]
IC50 [1]: 4740 nM | IC50 [2]: 2210 nM | IC50 [3]: 987 nM | IC50 [4]: 1420 nM | IC50 [5]: 1700 nM | IC50 [6]: 1180 nM | IC50 [7]: 3660 nM | IC50 [8]: 1820 nM | IC50 [9]: 2450 nM | IC50 [10]: 7340 nM | IC50 [11]: 1010 nM | IC50 [12]: 6340 nM | IC50 [13]: 1850 nM | IC50 [14]: 5180 nM | IC50 [15]: 4610 nM | IC50 [16]: 4070 nM | IC50 [17]: 15100 nM | IC50 [18]: 1030 nM | IC50 [19]: 1130 nM | IC50 [20]: 1840 nM | IC50 [21]: 1260 nM | IC50 [22]: 7950 nM | IC50 [23]: 3340 nM | IC50 [24]: 5530 nM | IC50 [25]: 4800 nM | IC50 [26]: 3200 nM | IC50 [27]: 3030 nM | IC50 [28]: 2070 nM | IC50 [29]: 4280 nM | IC50 [30]: 1920 nM | IC50 [31]: 1590 nM | IC50 [32]: 3460 nM | IC50 [33]: 1220 nM | IC50 [34]: 22800 nM | IC50 [35]: 2580 nM | IC50 [36]: 1860 nM | IC50 [37]: 1730 nM | IC50 [38]: 4200 nM | IC50 [39]: 2460 nM | IC50 [40]: 2460 nM | IC50 [41]: > 31600 nM | IC50 [42]: 814 nM | IC50 [43]: 7210 nM | IC50 [44]: 546 nM

CNC(=O)c1ccccc1Sc1ccc2c(/C=C/c3ccccn3)n[nH]c2c1 [axitinib]
IC50 (4-4 cell, read-out: cell panel IC50, PA-1): 1290 nM | IC50 (A498, read-out: cell panel IC50, A-498): 3210 nM | IC50 (A-375, read-out: cell panel IC50, A375): 5650 nM | IC50 (HCT-116, read-out: cell panel IC50, HCT-116): 2290 nM | IC50 (SHP77, read-out: cell panel IC50, SHP-77): 5570 nM

CC(C)C[C@H](NC(=O)[C@H](Cc1ccccc1)NC(=O)c1cnccn1)B(O)O [bortezomib]
Difference between the average IC50 in the cell panel and the most potent IC50 (44 cell line panel, Figure 2D): 10 fold | IC50 [1]: 18 nM | IC50 [2]: 15 nM | IC50 [3]: 4.63 nM | IC50 [4]: 2090 nM | IC50 [5]: 6 nM | IC50 [6]: 9 nM | IC50 [7]: 13 nM | IC50 [8]: 11 nM | IC50 [9]: 10 nM | IC50 [10]: 13 nM | IC50 [11]: 18 nM | IC50 [12]: 64 nM | IC50 [13]: 245 nM | IC50 [14]: 28 nM | IC50 [15]: 14 nM | IC50 [16]: 6 nM | IC50 [17]: 10 nM | IC50 [18]: 19 nM | IC50 [19]: 21 nM | IC50 [20]: 31 nM | IC50 [21]: 221 nM | IC50 [22]: 5.28 nM | IC50 [23]: 18 nM | IC50 [24]: 16 nM | IC50 [25]: 10 nM | IC50 [26]: 6 nM | IC50 [27]: 5.68 nM | IC50 [28]: 8 nM | IC50 [29]: 11 nM | IC50 [30]: 28 nM | IC50 [31]: 85 nM | IC50 [32]: 79 nM | IC50 [33]: 7 nM | IC50 [34]: 66 nM | IC50 [35]: 6 nM | IC50 [36]: 10 nM | IC50 [37]: < 3.16 nM | IC50 [38]: 4 nM | IC50 [39]: 53 nM | IC50 [40]: 10 nM | IC50 [41]: 11 nM | IC50 [42]: 4.74 nM | IC50 [43]: 27 nM | IC50 [44]: 12 nM
